In the METLIN SMRT retention time set (Domingo-Almenara et al. 2019) one finds RP-LC retention time data, which are given here for 79 compounds.

The series in a line: gradient 5% acetonitrile 3 min, to 50% in 2 min, to 85% in 15 min, held 3 min, 100 µL/min. As to conditions: column: Zorbax Extend-C18 2.1 x 50 mm; eluents: water / acetonitrile, 0.1% formic acid. The essentials: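 The system's dead and dwell volumes were 40 μL and 900 μL, with a Zorbax Extend-C18 column (2.1 × 50 mm, 1.8 μm) run at 100 μL/min in water and acetonitrile containing 0.1% formic acid each. Pure standards were analyzed in mixtures of ~100 molecules by HPLC–quadrupole time-of-flight mass spectrometry in positive and negative ionization mode. Retention time was assigned from computationally picked, manually inspected adduct peaks.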
`Cc1nn(C)c(C)c1S(=O)(=O)N1CCC(c2noc(-c3ccccc3)n2)C1` (centres undefined): the RP-LC retention time was determined as 856 s. As for `Cc1ccc(NC(=O)C2CCCN(C(=O)C3Sc4ccccc4NC3=O)C2)cc1Cl` (centres undefined), the RP-LC retention time amounted to 893 s.

Take `O=C(C1=CN(c2ccc(F)c(F)c2)c2cc(Cl)ccc2S1(=O)=O)N1CCOCC1`: the RP-LC retention time is 775 s. As for `O=C(NCc1ccccc1)C1CC(=O)N(c2ccc3c(c2)CCN3C(=O)C2CC2)C1` (centres undefined), the RP-LC retention time was 727 s. Compound `O=C(Nc1nnc(-c2ccco2)o1)c1ccc2c(c1)CCCC2` had an RP-LC retention time of 775 s. `O=C(Nc1ccccc1)N1CCc2nc(-c3ccccc3)ncc2C1` registered an RP-LC retention time of 859 s. For `CCN(c1ccccc1)S(=O)(=O)c1cc(-c2[nH]ncc2C(=O)N2CCCC2)oc1C` the value was 781 s. To `CC(=O)c1ccc(N2CCN(c3ccc(NC(=O)C4CCC4)c(C(=O)O)c3)CC2)cc1` belongs 853 s; to `CC(C)CN(CCCNC(=O)C1CCN(c2cnn(C)c(=O)c2)C1)CC(C)C` (centres undefined), 589 s. To `CNC(=O)[C@@H]1C[C@H](Oc2ccccc2)CN1C(=O)CCCc1c[nH]c2ccccc12` belongs 800 s.

In turn, `CCCN1CCN(c2ncc3c(n2)CCN(Cc2cccc(OC)c2)C3)CC1` gave an RP-LC retention time of 1120 s.

With `Cc1ccccc1S(=O)(=O)N1CCC2(CC1)CC(OCC1CC1)CCO2` (centres undefined), the RP-LC retention time was determined as 1080 s. Compound `O=C(Cc1csc(Nc2ncccn2)n1)N1CCN(c2cccc(Cl)c2Cl)CC1` displayed an RP-LC retention time of 838 s.

As for `CN1c2cc(F)ccc2C(=O)NC12CCN(C(=O)c1ccc(F)cc1)CC2`, the RP-LC retention time turned out to be 744 s. `Cc1cc2c(cc(C(=O)NCCc3ccccc3)n2C)s1` gave an RP-LC retention time of 1040 s. For `Cc1cccc(NC(=O)N2CCN(c3cc(C)nc(N4CCOCC4)n3)CC2)c1` the value was 623 s; for `CSc1cccc(NC(=O)Cn2c(N3CCOCC3)nc(C)cc2=O)c1`, 694 s; for `Cc1ccc(NS(=O)(=O)c2c[nH]c3ncccc23)cc1F`, 761 s. For `COc1ccc(Cl)cc1C(=O)Nc1ccc(-c2cn3ccc(C)nc3n2)cc1` the value was 727 s.

Turning to `COC(=O)c1cc(C2CC2)nc2c1c(=O)n(Cc1ccccc1F)c(=O)n2C`, the RP-LC retention time turned out to be 1080 s.

The compound `CNC(=O)c1cc(N2CCCC2)nc2c(C)cccc12` showed an RP-LC retention time of 567 s. In turn, `CC(C)(C)NC(=O)Cn1ccn2nc(-c3ccc(F)cc3)c(CO)c2c1=O` showed an RP-LC retention time of 738 s. To `O=C(Cc1csc(NC(=O)c2ccsc2)n1)NCCOc1ccc(F)cc1` belongs 747 s.

The compound `CCc1noc(NC(C)=O)c1-c1ccc(OC)c(S(=O)(=O)N2CCOCC2)c1` had an RP-LC retention time of 676 s. `COc1cc(-c2noc(-c3ncn4c3COC(c3ccc(F)cc3)C4)n2)cc(OC)c1OC` (centres undefined): the RP-LC retention time is 976 s. As for `COc1ccccc1NC(=O)C1c2cc(OC)c(OC)cc2C(=O)N2CCc3ccccc3C12` (centres undefined), the RP-LC retention time was 862 s.

For `O=C(NC1CCCCC1)c1ccc(Cn2cncn2)cc1`, the RP-LC retention time was 671 s. To `Cc1ccc(C)c(N2CCN(c3ncc(S(=O)(=O)c4ccc(Cl)cc4)c(N)n3)CC2)c1` belongs 1380 s; to `O=C(NCCCN1CCCCC1)c1cc2n(n1)CCCN(Cc1ccc(Cl)cc1)C2=O`, 582 s. For `O=C(NCc1ccccc1)c1ccc(NC(=O)C2CCC2)cc1N1CCOCC1`, the RP-LC retention time stood at 842 s. Take `Cn1cnc(S(=O)(=O)N2CC(c3nc(CCOCc4ccccc4)no3)C2)c1`: the RP-LC retention time was 745 s. For `Cc1nc2ccn(Cc3cccs3)c(=O)c2cc1C(=O)NCCC1=CCCCC1` the value was 931 s; for `Cn1nccc1-c1cccc(-c2noc(/C=C/c3cccs3)n2)c1`, 1160 s. To `Cc1cccnc1NC(=O)C1CCN(S(=O)(=O)c2cc(C(=O)N3CCCCCC3)cs2)CC1` belongs 675 s; to `Cc1ccc(S(=O)(=O)NCCc2cn(CC(C)C)c3ncccc23)cc1Cl`, 1070 s.

On to `O=C(Cn1c(=O)c2cc(C3CC3)nn2c2ncccc21)Nc1cccc(Cl)c1`, for which the RP-LC retention time was determined as 848 s. For `CCOC(=O)C1CCN(C(=O)C2CN(C(=O)c3ccc(F)c(F)c3)C2)CC1` the value was 696 s; for `COc1cc(OC)c(NC(=O)Nc2c(-c3ccccc3)nc3ccccn23)cc1Cl`, 682 s; for `Cc1cc(-c2nnc(C3CCC3)o2)c(C)n1CC(=O)NCc1cc(F)cc(F)c1`, 864 s. In the case of `CCOc1ccccc1NC(=O)Nc1nnc(Cc2ccccc2)o1`, the RP-LC retention time turned out to be 845 s.

`CC(C)(C)c1csc(-c2csc(S(=O)(=O)NCc3cccs3)c2)n1` gave an RP-LC retention time of 1180 s. To `CCOC(=O)c1csc(-n2nc(C(F)(F)F)cc2-c2ccc(OC)cc2)n1` belongs 1280 s; to `Cc1cccc(N2C(=O)CN(CCc3ccccc3F)[C@H]3CS(=O)(=O)C[C@H]32)c1`, 840 s. `CNC(=O)c1n[nH]c2c1CCCCCC2` gave an RP-LC retention time of 685 s. To `CCOC(=O)CNC(=O)CSc1ccc2nnc(-c3cccc(F)c3)n2n1` belongs 625 s. To `Cc1ccccc1CNC1=NCCNC12CCN(S(=O)(=O)c1ccc3c(c1)CCCC3)CC2` belongs 851 s; to `O=C(NC1CC1)C1CCN(S(=O)(=O)c2cc(C(=O)N3CCCCCC3)cs2)CC1`, 713 s; to `CCCc1c(OCCCOc2ccc(OCC(=O)O)cc2)ccc(C(C)=O)c1O`, 1150 s. To `Cn1c(C(=O)N2CCC(C(=O)NCc3ccccc3Cl)CC2)cc2oc3ccccc3c21` belongs 978 s; to `Cc1cc(C)cc(NC(=O)CN2C(=O)CSc3ccc(C(=O)N4CCCC4)cc32)c1`, 634 s; to `Cn1c(=O)n(C)c2cc(N3CCOCC3)c(NC(=O)COc3ccc(Cl)cc3)cc21`, 899 s. In turn, `CCCCNC(=O)C1CCN(c2cnn(Cc3ccccc3)c(=O)c2)CC1` gave an RP-LC retention time of 752 s. Take `O=C(c1cccs1)N1CCN(c2ccc3nnc(-c4ccco4)n3n2)CC1`: the RP-LC retention time stood at 631 s. For `Cc1cc(C(=O)NC(C)C)c2cc(Br)ccc2n1` the value was 702 s; for `N#CC1(C(=O)Nc2ccc(F)c(F)c2)CC1`, 760 s. To `O=C(C1CCN(S(=O)(=O)c2ccc(-c3ccn[nH]3)o2)CC1)N1CCN(c2ccccn2)CC1` belongs 594 s; to `CCN1c2ccccc2C(=O)NC12CCN(C(=O)c1cc(OC)cc(OC)c1)CC2`, 771 s; to `COc1nn(C)cc1C(=O)Nc1ccccc1SC`, 776 s. As for `COCCN1CC2(CCN(S(=O)(=O)c3ccc(C)cc3)CC2)C1c1ccccc1` (centres undefined), the RP-LC retention time is 693 s. For `O=C(C1=CN(c2ccc3c(c2)OCO3)c2ccccc2S1(=O)=O)N1CCCCC1` the value was 780 s; for `COc1ccc(-n2nc(SCC(=O)Nc3ccc(F)c(F)c3)ccc2=O)cc1`, 772 s. To `O=C(Cc1ccc(Cl)cc1)N1C[C@@H]2C[C@H]1C[C@@H]2NS(=O)(=O)c1cccs1` belongs 838 s; to `CCc1ccc(-c2noc(Cn3c(=O)n(-c4ccc(F)cc4)c(=O)c4sccc43)n2)cc1`, 1090 s. Take `C=CCNC(=O)N1CC(=O)Nc2ccccc21`: the RP-LC retention time was 592 s.

For `Cc1cnc(CC2CCN(S(=O)(=O)c3cccc(F)c3)C2)n1C(C)C` (centres undefined), the RP-LC retention time stood at 671 s. To `O=C(NCc1ccco1)C(=O)c1cccn1Cc1ccc(F)cc1` belongs 962 s.

As for `Cc1nc(-c2csc(S(=O)(=O)N3CCCC(C(=O)NCc4ccccc4Cl)C3)c2)no1` (centres undefined), the RP-LC retention time worked out at 940 s.

`COCCCNC(=O)Cn1nc(C)c2nn(-c3ccc(Cl)cc3)c(-n3cccc3)c2c1=O`: the RP-LC retention time is 887 s. `c1cncc(CN2CC(Oc3ccc(-c4noc(-c5ccncc5)n4)cc3)C2)c1` had an RP-LC retention time of 813 s.

The compound `Cc1cccc(NC(=O)N2CCc3nc(-c4ccc(Cl)cc4)ncc3C2)c1C` came in with an RP-LC retention time of 660 s.

The compound `O=C1CC(c2nc3ccccc3n2CCN2CCOCC2)CN1Cc1ccc(F)cc1` (centres undefined) yielded an RP-LC retention time of 612 s. For `CCc1ccc(-c2nc(C3CC(=O)N(c4ccc(OC)cc4)C3)no2)cc1` (centres undefined) the value was 1090 s; for `CCN1CCN(C(=O)C(C)C2CCN(S(=O)(=O)c3ccc(Cl)s3)CC2)CC1` (centres undefined), 666 s. `CC(C)n1c(CN2CCOCC2)nc2cc(NC(=O)c3cccs3)ccc21` displayed an RP-LC retention time of 640 s. Take `COc1ccc(-c2ccnc3nc(C4CC4)nn23)c(F)c1`: the RP-LC retention time was 797 s. To `CCN(CC)C(=O)c1cnc2snc(C)c2c1N1CCC(C(=O)Nc2ccc(OC)c(Cl)c2)CC1` belongs 900 s; to `O=S(=O)(Nc1ccc2c(c1)OCCO2)c1ccc(-c2nnc(C3CCC3)o2)o1`, 842 s; to `CCCn1c(-c2cccc(C(=O)NCc3ccc(Br)cc3)c2)nc2cccnc21`, 875 s. Compound `O=c1n(Cc2ccccc2)nc2c(S(=O)(=O)N3CCCCCC3)cccn12` showed an RP-LC retention time of 948 s.
